# Source: US7923465B2, “Cannabinoid receptor ligands, pharmaceutical compositions containing them, and process for their preparation” (priority 2005, dated 2011)
# Read-outs that look alike come from different tables or passages of the source.
# How the values were obtained:
# [1] = target: T1, hCB2 (Homo sapiens, UniProt P34972); test: Agonism of CB2 receptors expressed in CHO cells, forskolin cAMP assay (Protocol IX.2); type: cell-based; set-up: expressed in transfected cells; host or cells: CHO (h-CB2/CHO, G418-selected); details: cAMP
# T1 sequence (P34972 whole entry): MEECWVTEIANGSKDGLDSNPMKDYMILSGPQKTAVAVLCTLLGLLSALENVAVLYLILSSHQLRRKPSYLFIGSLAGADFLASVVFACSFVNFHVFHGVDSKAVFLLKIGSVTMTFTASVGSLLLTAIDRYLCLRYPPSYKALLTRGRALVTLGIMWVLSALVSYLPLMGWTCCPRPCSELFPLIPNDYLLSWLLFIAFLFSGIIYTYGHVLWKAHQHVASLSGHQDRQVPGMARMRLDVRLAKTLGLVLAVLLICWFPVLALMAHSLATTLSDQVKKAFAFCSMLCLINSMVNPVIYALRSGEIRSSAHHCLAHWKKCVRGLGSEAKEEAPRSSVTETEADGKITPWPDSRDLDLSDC
# Experimental: (§1) IX. Assay for Determining Agonist and Antagonist Activity to CB1 and CB2 Receptors
# 2. Agonism of CB1/CB2 Receptors Expressed in CHO Cells
# h-CB1/CHO or h-CB2/CHO cells were grown in HAM's F12 DMEM medium (Sigma) with 10% FBS (Hyclone), 1% penicillin-streptomycin solution and 400 μg/ml of G418 (Sigma). 5000 cells were seeded per well in a 96 well plate and incubated for 24 hours at 37° C. in 5% CO2. On the day of assay, cells were washed with warm Krebs Buffer containing 0.1% fatty acid free (FAF) BSA (Sigma) and re-suspended in the same buffer containing 1 mM IBMX. Test compound or CP 55,940 as a reference compound (30 nM final concentration for CB1 testing and 10 μM of the same for CB2 testing) diluted in FFB+IBMX+Krebs buffer was added to the cells followed by forskolin addition (10 uM final concentration) and incubated for 30 minutes at room temperature. At the end of incubation, cells were lysed using lysis reagent from the cAMP estimation kit and cAMP was quantitated by chemiluminescence method described in the manufacturer's instructions (DiscoveRX). EC50 values were calculated from dose response curves by nonlinear regression analysis using PRISM software.
# [2] = target: T1, hCB2; test: Antagonism of CB2 receptors expressed in CHO cells, cAMP assay against CP 55,940 (Protocol IX.1); type: cell-based; set-up: expressed in transfected cells; host or cells: CHO (h-CB2/CHO, G418-selected); details: CHO, h-CB2/CHO cells, vs 10 nM CP 55,940
# Experimental: as §1
# (§2) 1. Antagonism of CB1/CB2 Receptors Expressed in CHO Cells.
# h-CB1/CHO or h-CB2/CHO cells were grown in HAM's F12 DMEM medium (Sigma) with 10% FBS (Hyclone), 1% penicillin-streptomycin solution and 400 μg/ml of G418 (Sigma). 5000 cells were seeded per well in a 96 well plate and incubated for 24 hours at 37° C. in 5% CO2. On the day of assay, cells were washed with warm Krebs buffer containing 0.1% fatty acid free (FAF) BSA (Sigma) and re-suspended in the same buffer containing 1 mM IBMX. Test antagonist or reference compound (AM 251 (1-(2,4-dichlorophenyl)-5-(4-iodophenyl)-4-methyl-N-(1-piperidyl)pyrazole-3-carboxamide) for CB1 and SR144528 for CB2) diluted in FAFBSA+IBMX+Krebs buffer was added to the cells and incubated for 10 minutes at room temperature. CP 55,940 (30 nM final concentration for CB1 testing and 10 nM of the same for CB2 testing) was added to cells followed by forskolin (10 μM final concentration) and incubated for 30 minutes at room temperature. At the end of incubation, cells were lysed using lysis reagent from the cAMP estimation kit and cAMP was quantitated by the chemiluminescence method described in the manufacturer's instructions (DiscoveRX). EC50 values were calculated from dose response curves by nonlinear regression analysis using PRISM software.
# [3] = target: T2, CB1 (Rattus norvegicus, UniProt P20272); test: Rat CB1 receptor binding using brain membrane, [3H]SR141716A displacement (Protocol I); set-up: CB1 receptor present in a rat brain membrane preparation; from tissue; host or cells: rat brain membrane; inhibition: dose or concentration left out as unconfirmed; details: 1 h
# T2 sequence (P20272 whole entry): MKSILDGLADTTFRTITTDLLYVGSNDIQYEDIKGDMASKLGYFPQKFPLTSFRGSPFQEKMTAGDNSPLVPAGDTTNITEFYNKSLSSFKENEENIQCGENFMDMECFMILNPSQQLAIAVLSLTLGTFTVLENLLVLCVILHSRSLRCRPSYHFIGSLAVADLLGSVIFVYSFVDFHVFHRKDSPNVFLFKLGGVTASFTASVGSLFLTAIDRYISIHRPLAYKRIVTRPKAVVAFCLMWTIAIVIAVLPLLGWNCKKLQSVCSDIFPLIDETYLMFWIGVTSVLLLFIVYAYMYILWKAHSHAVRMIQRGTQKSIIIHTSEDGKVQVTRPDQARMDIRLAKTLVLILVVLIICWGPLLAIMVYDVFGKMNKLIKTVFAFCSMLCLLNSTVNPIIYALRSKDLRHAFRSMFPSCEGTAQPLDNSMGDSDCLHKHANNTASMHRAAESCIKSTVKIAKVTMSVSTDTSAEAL
# [4] = target: T1, hCB2; test: In vitro binding assay using hCB2-CHO membranes, [3H]-CP-55,940 displacement (Protocol IV); set-up: expressed in transfected cells; host or cells: CHO (hCB2-CHO, generated in-house); details: for inhibition at 0.3 µM: 1 h, read-out: % Displacement Protocol IV
# Procedure, shortened: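 Displacement of [3H]-CP-55,940 (0.75 nM) from membranes of CHO cells expressing human CB2 (25-50 μg) was measured in Tris-BSA buffer pH 7.4 with 5 mM MgCl2, 1 mM EDTA, 0.1% BSA, 1 h at 30 °C. Test compounds were at 300 nM final; nonspecific binding defined with 0.5 μM CP-55,940. Values are % displacement of specific binding.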
# [5] = target: T3, hCB1 (Homo sapiens, UniProt P21554); test: Antagonism of CB1 receptors expressed in CHO cells, cAMP assay against CP 55,940 (Protocol IX.1); type: cell-based; set-up: expressed in transfected cells; host or cells: CHO (h-CB1/CHO, G418-selected); details: h-CB1/CHO cells, cAMP, vs 30 nM CP 55,940; for inhibition at 10 µM: read-out: hCB1 Antagonism
# T3 sequence (P21554 whole entry): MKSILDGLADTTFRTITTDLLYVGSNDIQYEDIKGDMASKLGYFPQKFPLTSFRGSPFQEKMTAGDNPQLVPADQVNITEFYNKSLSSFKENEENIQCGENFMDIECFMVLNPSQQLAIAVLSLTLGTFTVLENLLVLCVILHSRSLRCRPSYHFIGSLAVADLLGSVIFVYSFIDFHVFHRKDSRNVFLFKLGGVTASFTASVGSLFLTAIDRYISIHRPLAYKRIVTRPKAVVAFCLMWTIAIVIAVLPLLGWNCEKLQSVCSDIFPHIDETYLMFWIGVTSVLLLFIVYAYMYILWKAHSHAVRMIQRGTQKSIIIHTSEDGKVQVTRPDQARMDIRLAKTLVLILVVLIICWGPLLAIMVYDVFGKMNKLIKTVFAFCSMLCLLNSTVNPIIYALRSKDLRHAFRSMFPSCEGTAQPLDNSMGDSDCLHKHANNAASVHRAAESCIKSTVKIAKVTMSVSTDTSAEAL
# Experimental: as §1, §2
# h-CB1/CHO or h-CB2/CHO cells were grown in HAM's F12 DMEM medium (Sigma) with 10% FBS (Hyclone), 1% penicillin-streptomycin solution and 400 μg/ml of G418 (Sigma). 5000 cells were seeded per well in a 96 well plate and incubated for 24 hours at 37° C. in 5% CO2. On the day of assay, cells were washed with warm Krebs buffer containing 0.1% fatty acid free (FAF) BSA (Sigma) and re-suspended in the same buffer containing 1 mM IBMX. […] At the end of incubation, cells were lysed using lysis reagent from the cAMP estimation kit and cAMP was quantitated by the chemiluminescence method described in the manufacturer's instructions (DiscoveRX). EC50 values were calculated from dose response curves by nonlinear regression analysis using PRISM software.
# [6] = target: T3, hCB1; test: In vitro binding assay using hCB1-CHO membranes, [3H]-CP-55,940 displacement (Protocol II); set-up: expressed in transfected cells; host or cells: CHO (hCB1-CHO, generated in-house)
# Procedure, shortened: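 Incubated 1 h at 37° C, stopped by rapid vacuum filtration on PEI-precoated GF/B filters, bound radioactivity counted by liquid scintillation.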
# [7] = target: T2, CB1; test: GTPγS binding assay, CB1 functional assay in rat cerebellar membrane (Protocol VIII); type: biochemical; set-up: 10 μg rat cerebellum membrane; from tissue; host or cells: rat cerebellum membrane, prepared in-house; details: for activation at 1 µM: 1 h, read-out: Per Se % Stimulation; for inhibition at 1 µM: read-out: % Inhibition of WIN-55212-2 induced stimulation
# Procedure, shortened: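 Rat cerebellar membranes (10 μg) incubated 1 h at 30 °C with 0.2 nM [35S]GTPγS, 50 μM GDP, and compound at 1 μM or 300 nM, alone or with 1 μM WIN 55,212-2, in Tris/MgCl2/EGTA/NaCl pH 7.4. Filter-bound radioactivity counted; percent stimulation calculated against basal specific binding (nonspecific defined by 10 μM GTPγS).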
# [8] = rat brain membrane, [3H]SR141716A displacement, read-out: % Displacement Protocol I
# [9] = hCB2-CHO membranes, [3H]-CP-55,940 displacement
# [10] = h-CB2/CHO cells, read-out: hCB2 Agonism IC50
# [11] = GTPγS binding over basal, rat cerebellar membrane, tested at 1 uM
# [12] = GTPγS binding, tested at 1 uM in presence of 1 μM WIN 55,212-2
# [13] = read-out: % Displacement Protocol I, rat brain membrane, [3H]SR141716A displacement
smiles,measurement,setting,value
"O=C(NN(C1CCCCC1)C1CCCCC1)c1nn(-c2ccc(Cl)cc2Cl)c2c1C1CCC2C1 (stereo not drawn) [Example 239, N(3)-(N,N-Dicyclohexylamino)-1-(2,4-dichlorophenyl)-4,5,6,7-tetrahydro-1H-4,7-methano-indazole-3-carboxamide]",IC50,"[1]; hCB2 Agonism IC50, h-CB2/CHO cells",42.5 nM
same,inhibition at 10 µM,[2],64.1%
same,melting point,,127 to 130 °C
same,inhibition,[3]; [8],23.5%
same,inhibition at 0.3 µM,[4]; [9],77.1%
"CC(C)(C)c1ccc(NC(=O)c2nn(-c3ccc(Cl)cc3)c3c2C2CCC3C2)cc1 (stereo not drawn) [Example 219, N(3)-(4-tert-Butylphenyl)-1-(4-chlorophenyl)-4,5,6,7-tetrahydro-1H-4,7-methano-indazole-3-carboxamide]",inhibition at 10 µM,[5]; at 10 uM,33.4%
same,melting point,,76 to 78 °C
same,inhibition,[3]; [8],33.7%
"O=C(NCc1ccc(F)cc1)c1nn(-c2ccc(Cl)cc2)c2c1C1CCC2C1 (stereo not drawn) [Example 226, N(3)-(4-Fluorobenzyl)-1-(4-chlorophenyl)-4,5,6,7-tetrahydro-1H-4,7-methano-indazole-3-carboxamide]",inhibition at 10 µM,[5]; at 10 uM,71%
same,melting point,,104 to 107 °C
same,inhibition,[3]; [8],38.4%
"O=C(NCc1ccc(Cl)cc1Cl)c1nn(-c2ccc(F)cc2F)c2c1C1CCC2C1 (stereo not drawn) [Example 307, N5-(2,4-Dichlorobenzyl)-3-(2,4-difluorophenyl)-3,4-diazatricyclo[5.2.1.0^2,6]deca-2(6),4-diene-5-carboxamide]",IC50,[1]; [10],0.81 nM
same,inhibition at 10 µM,[2],21.6%
same,melting point,,105 to 108 °C
same,inhibition at 0.3 µM,[4],70.3%
"CC(C)(C)NC(=O)c1nn(-c2ccc(F)cc2F)c2c1C1CCC2(C)C1(C)C (stereo not drawn) [Example 408, N(3)-tert-Butyl-1-(2,4-difluorophenyl)-7,8,8-trim ethyl-4,5,6,7-tetrahydro-1H-methano-indazole-3-carboxamide]",IC50,[1]; [10],16.1 nM
same,% Displacement Protocol II,[6],24.93%
same,% Displacement Protocol IV,[4]; [9],61.92%
"O=C(NNc1ccc(F)cc1F)c1nn(-c2ccc(Cl)cc2)c2c1C1CCC2C1 (stereo not drawn) [Example 235, N(3)-[(2,4-Difluorophenyl)amino]-1-(4-chlorophenyl)-4,5,6,7-tetrahydro-1H-4,7-methano-indazole-3-carboxamide]",inhibition at 10 µM,[5]; at 10 uM,59.9%
same,melting point,,118 to 120 °C
same,inhibition,[3]; [8],46.8%
"CCCCCNC(=O)c1nn(-c2ccc(F)cc2F)c2c1C1CCC2C1 (stereo not drawn) [Example 306, N5-n-Pentyl-3-(2,4-difluorophenyl)-3,4-diazatricyclo[5.2.1.0^2,6]deca-2(6),4-diene-5-carboxamide]",IC50,[1]; [10],11.9 nM
same,inhibition at 10 µM,[2],14.4%
same,melting point,,75 to 78 °C
same,inhibition at 0.3 µM,[4],62.9%
"Cl.O=C(NNc1ccccc1)c1nn(-c2ccc(Cl)cc2)c2c1C1CC3CC(C1)CC2C3 [Example 122, N(7)-(N′-phenylamino)-5-(4-chlorophenyl)-5,6-diazatetracyclo[7.3.1.1^3,11.0^4,8]tetradeca-4(8),6-diene-7-carboxamide hydrochloride]",inhibition at 10 µM,[5]; at 10 uM,40.7%
same,Per Se % Stimulation,[7]; [11],1.2%
same,% Inhibition of WIN-55212-2 induced stimulation,[7]; [12],59.3%
same,inhibition,[3]; [13],66.4%
"O=C(NC12CC3CC(CC(C3)C1)C2)c1nn(-c2ccc(Cl)cc2)c2c1C1CC3CC(C1)CC2C3 [Example 109, N(7)-(Adamantan-1-yl)-5-(4-chlorophenyl)-5,6-diazatetracyclo[7.3.1.1^3,11.0^4,8]tetradeca-4(8)-6-diene-7-carboxamide]",hCB1 Antagonism,[5]; at 10 uM,61.64% at
same,% Displacement Protocol II,[6],8.36%
same,% Displacement Protocol IV,[4]; [9],63.05%
"O=C(NC12CC3CC(CC(C3)C1)C2)c1nn(-c2ccc(Cl)cc2Cl)c2c1C1CCC2c2ccccc21 (stereo not drawn) [Example 506, N(12)-(Adamantan-1yl)-10-(2,4-dichlorophenyl)-10,11-diazatetracyclo[6.5.2.0^2,7.0^9,13]pentadeca-2,4,6,9(13),11-pentaene-12-carboxamide]",hCB2 Agonism,"[1]; at 10 uM, h-CB2/CHO cells",0% at 10 uM
same,inhibition at 10 µM,[2],80.2%
same,melting point,,120 to 124 °C
same,inhibition at 0.3 µM,[4],52.4%
"O=C(NC1CCCC1)c1nn(-c2ccc(Cl)cc2)c2c1C1CCC2C1 (stereo not drawn) [Example 212, N(3)-Cyclopentyl-1-(4-chlorophenyl)-4,5,6,7-tetrahydro-1H-4,7-methano-indazole-3-carboxamide]",inhibition at 10 µM,[5]; at 10 uM,39.1%
same,activation at 1 µM,[7]; [11],-13.8%
same,inhibition at 1 µM,[7]; [12],97.4%
same,melting point,,176 to 178 °C
same,inhibition,[3]; [13],68.4%
"O=C(NN1CCCCC1)c1nn(-c2ccc(Cl)cc2Cl)c2c1C1CCC2C1 (stereo not drawn) [Example 268, N(5)-piperidino-3-(2′,4′-dichlorophenyl)-3,4-diazatricyclo[5.2.1.0^2,6]deca-2(6),4-diene-5-carboxamide]",inhibition at 1 µM,[5]; at 1 uM,50.9%
same,activation at 1 µM,[7]; [11],29.1%
same,inhibition at 1 µM,[7]; [12],55.3%
same,inhibition,[3]; [8],41%
